Where a name gives a salt, the structure may show the parent alone.
Assays:
FXR = biological target: T1, FXR (Homo sapiens, UniProt Q96RI1); assay: FXR mediated transactivation (luciferase reporter) in transfected HepG2 cells; format: cell-based; details: each compound at 10 microM, transactivation activity of CDCA on FXR = 100%
T1 construct: expressed in transfected cells; host or cells: HepG2
T1 sequence (Q96RI1 1-486): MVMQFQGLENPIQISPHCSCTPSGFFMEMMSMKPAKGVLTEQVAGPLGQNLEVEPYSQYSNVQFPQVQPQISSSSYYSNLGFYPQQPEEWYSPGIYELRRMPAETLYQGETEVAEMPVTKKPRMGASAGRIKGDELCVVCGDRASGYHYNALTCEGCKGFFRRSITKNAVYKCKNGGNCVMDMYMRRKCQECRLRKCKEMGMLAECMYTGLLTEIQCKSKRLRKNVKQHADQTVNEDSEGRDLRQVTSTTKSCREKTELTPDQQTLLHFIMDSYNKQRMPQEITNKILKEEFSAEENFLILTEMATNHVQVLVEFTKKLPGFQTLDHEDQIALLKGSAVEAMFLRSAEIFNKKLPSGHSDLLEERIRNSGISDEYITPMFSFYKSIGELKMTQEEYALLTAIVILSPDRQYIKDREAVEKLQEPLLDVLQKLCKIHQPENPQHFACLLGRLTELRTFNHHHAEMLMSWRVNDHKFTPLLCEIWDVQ
T1 sequence (P19793 1-462 partner): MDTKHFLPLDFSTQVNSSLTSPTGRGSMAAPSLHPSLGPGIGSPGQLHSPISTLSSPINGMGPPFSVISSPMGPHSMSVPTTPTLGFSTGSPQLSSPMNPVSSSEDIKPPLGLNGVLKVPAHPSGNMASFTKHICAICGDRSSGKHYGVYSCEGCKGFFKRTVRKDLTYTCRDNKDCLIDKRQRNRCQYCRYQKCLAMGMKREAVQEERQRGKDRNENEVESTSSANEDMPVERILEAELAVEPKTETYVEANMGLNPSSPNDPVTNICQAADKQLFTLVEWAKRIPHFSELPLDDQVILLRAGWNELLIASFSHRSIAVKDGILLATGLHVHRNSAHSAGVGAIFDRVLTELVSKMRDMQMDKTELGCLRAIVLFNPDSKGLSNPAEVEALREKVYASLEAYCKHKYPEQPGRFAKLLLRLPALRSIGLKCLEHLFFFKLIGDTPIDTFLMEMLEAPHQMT
Description: (§1) Each compound was tested at the concentration of 10 microM and transactivation activity of CDCA on FXR and TLCA on CRE (i.e. TGR5/GPBAR1) was considered equal to 100%.
(§2) Biological Activities. Activity of selected compounds was tested in vitro using a whole cell model transfected with a reporter genes to establish selectivity of compounds shown in table 1 toward FXR and TGR5/GPBAR1 in comparison with chenodeoxycholic acid (CDCA) and TLCA. CDCA is a primary bile acid that functions as an endogenous ligand for FXR, while TLCA is a physiological ligand for TGR5/GPBAR1. In this assay, HepG2 cells (a liver-derived cell line) were cultured at 37° C. in minimum essential medium with Earl's salts containing 10% fetal bovine serum (FBS), 1% L-glutamine, and 1% penicillin/streptomycin. […] The transfection experiments were performed using Fugene HD according to manufactured specifications. Cells were plated in a 24-well plate at 5×10^4 cells/well. For FXR mediated transactivation, HepG2 cells were transfected with 100 ng of pSG5-FXR, 100 ng of pSG5-RXR, 100 ng of pGL4.70 a vector encoding the human Renilla gene and 250 ng of the reporter vector p(hsp27)-TK-LUC containing the FXR response element IR1 cloned from the promoter of heat shock protein 27 (hsp27).
(§3) At 24 h post-transfection, cells were stimulated for 18 h with 10 μM TLCA as a control agent or putative GPBAR1 agonists as the same concentration. After treatments, cells were lysed in 100 μL of lysis buffer (25 mM Tris-phosphate, pH 7.8; 2 mM DTT; 10% glycerol; 1% Triton X-100), and 20 μL of cellular lysate was assayed for luciferase activity using the luciferase assay system. Luminescence was measured using Glomax 20/20 luminometer. Luciferase activities were normalized against Renilla activities. Antagonism against FXR of GPBAR1/TGR5 was measured as percent of activity in transactivation assay suing activity of TLCA as example of agonism.

human GPBAR1 = biological target: T2, human GPBAR1 (Homo sapiens, UniProt Q8TDU6); assay: GPBAR1 mediated transactivation (CRE luciferase reporter) in transfected HEK-293T cells; format: cell-based; details: each compound at 10 microM, transactivation activity of TLCA on CRE = 100%
T2 construct: expressed in transfected cells; host or cells: HEK-293T
T2 sequence (Q8TDU6 1-330): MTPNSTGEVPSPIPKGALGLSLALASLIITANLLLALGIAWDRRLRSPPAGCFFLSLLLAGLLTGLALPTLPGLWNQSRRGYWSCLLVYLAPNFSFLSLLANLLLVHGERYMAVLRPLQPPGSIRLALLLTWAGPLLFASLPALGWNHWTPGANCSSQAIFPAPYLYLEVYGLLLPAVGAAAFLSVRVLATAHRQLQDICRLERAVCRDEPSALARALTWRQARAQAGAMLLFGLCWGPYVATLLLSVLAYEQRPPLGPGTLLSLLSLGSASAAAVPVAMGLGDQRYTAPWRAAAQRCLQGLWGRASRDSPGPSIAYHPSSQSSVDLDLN
Description: as §1, §2, §3

Compound | FXR (% of activity in comparison to 10 μM CDCA) (FXR) [%] | GPBAR1 (% of activity in comparison to 10 μM TLCA) (human GPBAR1) [%]
CC[C@H]1[C@H](O)[C@@H]2[C@H](CC[C@]3(C)[C@@H]([C@H](C)CCCO)CC[C@@H]23)[C@@]2(C)CC[C@H](O)C[C@@H]12 [BAR707, 6α-ethyl-3β,7β-dihydroxy-5β-cholan-24-ol] | 92.5 ± 7.5 | 65 ± 6.0
C[C@H](CCO)[C@H]1CCC2C3C(CC[C@@]21C)[C@@]1(C)CC[C@@H](O)C[C@H]1C[C@@H]3O (stereo partly drawn) [BAR107, 3α,7β-dihydroxy-24-nor-5β-cholan-23-ol] | 1.8 ± 0.3 | 9.9 ± 1.7
CC[C@H]1[C@@H](O)C2C3CC[C@H]([C@H](C)CC(=O)O)[C@@]3(C)CCC2[C@@]2(C)CCCC[C@@H]12 (stereo partly drawn) [BARn704, 6α-ethyl-7α-hydroxy-24-nor-5β-cholan-23-oic acid] | 202.5 ± 1.5 | 64 ± 2.0
CC[C@H]1[C@@H](O)[C@@H]2[C@H](CC[C@]3(C)[C@@H]([C@H](C)CCCO)CC[C@@H]23)[C@@]2(C)CCCC[C@@H]12 [BAR701, 6α-ethyl-7α-hydroxy-5β-cholan-24-ol] | 101.3 ± 10.1 | 50.2 ± 2.3
CC[C@H]1[C@@H](O)C2C3CC[C@H]([C@H](C)CC#N)[C@@]3(C)CCC2[C@@]2(C)CC[C@@H](O)C[C@@H]12 (stereo partly drawn) [BAR506, 6α-ethyl-3α,7α-dihydroxy-24-nor-5β-cholan-23-nitrile] | 411.5 ± 36.5 | 80.9 ± 9.5
CC[C@H]1[C@@H](O)[C@@H]2[C@H](CC[C@]3(C)[C@@H]([C@H](C)CCCO)CC[C@@H]23)[C@@]2(C)CC[C@H](O)C[C@@H]12 [BAR706, 6α-ethyl-3β,7α-dihydroxy-5β-cholan-24-ol] | 153 ± 9.0 | 66.05 ± 7.6
CC[C@@H]1[C@H](O)[C@@H]2[C@H](CC[C@]3(C)[C@@H]([C@H](C)CCCO)CC[C@@H]23)[C@@]2(C)CC[C@@H](O)C[C@@H]12 [BAR501, 6β-ethyl-3α,7β-dihydroxy-5β-cholan-24-ol] | 9.9 ± 0.1 | 64.5 ± 0.5
CC[C@@H]1[C@@H](O)[C@@H]2[C@H](CC[C@]3(C)[C@@H]([C@H](C)CCCO)CC[C@@H]23)[C@@]2(C)CC[C@H](O)C[C@@H]12 [BAR709, 6β-ethyl-3β,7α-dihydroxy-5β-cholan-24-ol] | 33.7 ± 2.0 | 54.2 ± 0.3
CC[C@H]1[C@@H](O)C2C3CC[C@H]([C@H](C)CCO)[C@@]3(C)CCC2[C@@]2(C)CCCC[C@@H]12 (stereo partly drawn) [BARn701, 6α-ethyl-7α-hydroxy-24-nor-5β-cholan-23-ol] | 90 ± 22 | 55 ± 1.0
CC[C@@H]1[C@H](O)[C@@H]2[C@H](CC[C@]3(C)[C@@H]([C@H](C)CCCO)CC[C@@H]23)[C@@]2(C)CC[C@H](O)C[C@@H]12 [BAR708, 6β-ethyl-3β,7β-dihydroxy-5β-cholan-24-ol] | 6.4 ± 0.8 | 57.6 ± 4.6
C[C@H](CCCOS(=O)(=O)O)[C@H]1CCC2C3C(CC[C@@]21C)[C@@]1(C)CCCC[C@H]1C[C@H]3O (stereo partly drawn) [BAR402, 7α-hydroxy-5β-cholan-24-yl-24-sodium sulfate] | 336.4 ± 20.8 | 28.0 ± 1.8
CC[C@H]1[C@@H](O)C2C3CC[C@H]([C@H](C)CCCCC(=O)O)[C@@]3(C)CCC2[C@@]2(C)CC[C@@H](O)C[C@@H]12 (stereo partly drawn) [BAR802, 6α-ethyl-3α, 7α-dihydroxy-25, 26-bishomo-5β-cholan-26-oic acid] | 11.5 ± 8.5 | 56 ± 5.0
C[C@H](CCCCC(=O)O)[C@H]1CCC2C3C(CC[C@@]21C)[C@@]1(C)CC[C@@H](O)C[C@H]1C[C@@H]3O (stereo partly drawn) [BAR305, 3α, 7β-dihydroxy-25, 26-bishomo-5β-cholan-26-oic acid] | 0 | 23.9 ± 4.0
CC[C@@H]1[C@H](O)[C@@H]2[C@H](CC[C@]3(C)[C@@H]([C@H](C)CCCO)CC[C@@H]23)[C@@]2(C)CCCC[C@@H]12 [BAR702, 6β-ethyl-7β-hydroxy-5β-cholan-24-ol] | 11.7 ± 0.8 | 35.8 ± 1.2
CC[C@H]1[C@H](O)[C@@H]2[C@H](CC[C@]3(C)[C@@H]([C@H](C)CCCO)CC[C@@H]23)[C@@]2(C)CC[C@@H](O)C[C@@H]12 [BAR501-6a, 6α-ethyl-3α,7β-dihydroxy-5β-cholan-24-ol] | 15.4 ± 1.2 | 46.6 ± 6.7
CC[C@@H]1[C@@H](O)[C@@H]2[C@H](CC[C@]3(C)[C@@H]([C@H](C)CCCO)CC[C@@H]23)[C@@]2(C)CC[C@@H](O)C[C@@H]12 [BAR504-6b, 6β-ethyl-3α,7α-dihydroxy-5β-cholan-24-ol] | 32.4 ± 14.1 | 75.3 ± 3.4
CC[C@H]1[C@@H](O)C2C3CC[C@H]([C@H](C)CCCO)[C@@]3(C)CCC2[C@@]2(C)CC[C@@H](O)C[C@@H]12 (some centres unmarked) [BAR504] | 488.5 ± 17.5 | 103.0 ± 12.1
CC[C@H]1[C@@H](O)C2C3CC[C@H]([C@H](C)CCCCCOS(=O)(=O)O)[C@@]3(C)CCC2[C@@]2(C)CC[C@@H](O)C[C@@H]12 (stereo partly drawn) [BAR804, 6α-ethyl-3α, 7α-dihydroxy-25, 26-bishomo-5β-cholan-26-yl-26-sodium sulfate] | 196.5 ± 6.5 | 52.5 ± 3.5
CC[C@@H]1[C@@H](O)[C@@H]2[C@H](CC[C@]3(C)[C@@H]([C@H](C)CCCO)CC[C@@H]23)[C@@]2(C)CCCC[C@@H]12 [BAR705, 6β-ethyl-7α-hydroxy-5β-cholan-24-ol] | 43.7 ± 3.9 | 67.0 ± 9.9
CC[C@H]1[C@@H](O)C2C3CC[C@H]([C@H](C)CCO)[C@@]3(C)CCC2[C@@]2(C)CC[C@H](O)C[C@@H]12 (stereo partly drawn) [BARn706, 6α-ethyl-3β,7α-dihydroxy-24-nor-5β-cholan-23-ol] | 197.5 ± 4.5 | 69.5 ± 6.5
CC[C@H]1[C@@H](O)C2C3CC[C@H]([C@H](C)CCOS(=O)(=O)O)[C@@]3(C)CCC2[C@@]2(C)CC[C@H](O)C[C@@H]12 (stereo partly drawn) [BARn706solf, 6α-ethyl-3β,7α-dihydroxy-24-nor-5β-cholan-23-yl 23-sodium sulfate] | – | 71.5 ± 0.5

— patent US11117926B2, “Cholane derivatives for use in the treatment and/or prevention of FXR and TGR5/GPBAR1 mediated diseases” (BAR PHARMACEUTICALS S.R.L., priority 2014, dated 2021)
